Data published in PubChem BioAssay AID248 (DTP/NCI, 2004).
Where “and” joins values, the source holds several entries; their conditions need not be identical. Equal values may be shown once. Toxic doses and inconclusive results are not listed. Rule as the data show it: active = T/C of 150% or more; inactive = T/C below 125%.

System: L1210 leukemia ip in BDF1 mice, survival T/C
Assay: NCI In Vivo Anticancer Drug Screen. Data for tumor model L1210 Leukemia (intraperitoneal) in B6D2F1 (BDF1) mice
Conditions: endpoint: mean survival time, higher = longer survival
Summary of the method: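 Ratio derived from survival: compound-dosed mice over vehicle-dosed mice, all bearing a transplantable tumor.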

[1] = dose: 100.0 mg/kg/injection, schedule: Q04DX003 (ip), vehicle: saline
[2] = dose: 200.0 mg/kg/injection, schedule: Q04DX003 (ip), vehicle: saline
[3] = dose: 50.0 mg/kg/injection, schedule: Q01DX001 (ip), vehicle: carboxymethylcellulose (CMC)
[4] = dose: 100.0 mg/kg/injection, schedule: Q01DX009 (ip), vehicle: saline with Tween-80
[5] = dose: 100.0 mg/kg/injection, schedule: Q04DX003 (ip), vehicle: saline with Tween-80
[6] = dose: 200.0 mg/kg/injection, schedule: Q01DX009 (ip), vehicle: saline with Tween-80
[7] = dose: 200.0 mg/kg/injection, schedule: Q04DX003 (ip), vehicle: saline with Tween-80
[8] = dose: 400.0 mg/kg/injection, schedule: Q04DX003 (ip), vehicle: saline with Tween-80
[9] = dose: 100.0 mg/kg/injection, schedule: Q01DX001 (ip), vehicle: carboxymethylcellulose (CMC)
[10] = dose: 200.0 mg/kg/injection, schedule: Q01DX001 (ip), vehicle: carboxymethylcellulose (CMC)
[11] = dose: 400.0 mg/kg/injection, schedule: Q01DX001 (ip), vehicle: carboxymethylcellulose (CMC)
[12] = dose: 100.0 mg/kg/injection, schedule: Q04DX002 (ip), vehicle: Klucel (hydroxypropylcellulose) (HPC)
[13] = dose: 200.0 mg/kg/injection, schedule: Q04DX002 (ip), vehicle: Klucel (hydroxypropylcellulose) (HPC)
[14] = dose: 400.0 mg/kg/injection, schedule: Q04DX002 (ip), vehicle: Klucel (hydroxypropylcellulose) (HPC)
[15] = dose: 100.0 mg/kg/injection, schedule: Q01DX009 (ip), vehicle: Klucel (hydroxypropylcellulose) (HPC)
[16] = dose: 200.0 mg/kg/injection, schedule: Q01DX009 (ip), vehicle: Klucel (hydroxypropylcellulose) (HPC)
[17] = dose: 400.0 mg/kg/injection, schedule: Q01DX009 (ip), vehicle: Klucel (hydroxypropylcellulose) (HPC)
[18] = dose: 100.0 mg/kg/injection, schedule: Q04DX003 (ip), vehicle: Klucel (hydroxypropylcellulose) (HPC)
[19] = dose: 200.0 mg/kg/injection, schedule: Q04DX003 (ip), vehicle: Klucel (hydroxypropylcellulose) (HPC)
[20] = dose: 400.0 mg/kg/injection, schedule: Q04DX003 (ip), vehicle: Klucel (hydroxypropylcellulose) (HPC)

Measured: T/C

CN(CC1CCCO1)C(=O)Nc1ccc(Cl)cc1 (centres undefined)
inactive: dose: 100.0 mg/kg/injection, schedule: Q01DX009 (ip), vehicle: carboxymethylcellulose (CMC) 107 % of control | dose: 200.0 mg/kg/injection, schedule: Q01DX009 (ip), vehicle: carboxymethylcellulose (CMC) 96 % of control | dose: 400.0 mg/kg/injection, schedule: Q01DX009 (ip), vehicle: carboxymethylcellulose (CMC) 104 % of control

NC(=O)Nc1ncn[nH]1
inactive: dose: 100.0 mg/kg/injection, schedule: Q04DX002 (ip), vehicle: saline with Tween-80 95 % of control | dose: 200.0 mg/kg/injection, schedule: Q04DX002 (ip), vehicle: saline with Tween-80 95 % of control | dose: 400.0 mg/kg/injection, schedule: Q04DX002 (ip), vehicle: saline with Tween-80 95 % of control

NC(N)=N/N=C\c1ccc(O)c(O)c1
inactive: dose: 15.0 mg/kg/injection, schedule: Q01DX Z (ip), vehicle: carboxymethylcellulose (CMC) 97 % of control | dose: 30.0 mg/kg/injection, schedule: Q01DX Z (ip), vehicle: carboxymethylcellulose (CMC) 97 % of control | dose: 60.0 mg/kg/injection, schedule: Q01DX Z (ip), vehicle: carboxymethylcellulose (CMC) 113 % of control | dose: 120.0 mg/kg/injection, schedule: Q01DX Z (ip), vehicle: carboxymethylcellulose (CMC) 116 % of control | dose: 120.0 mg/kg/injection, schedule: Q01DX Z (oral), vehicle: carboxymethylcellulose (CMC) 109 % of control | dose: 240.0 mg/kg/injection, schedule: Q01DX Z (oral), vehicle: carboxymethylcellulose (CMC) 107 % of control | dose: 480.0 mg/kg/injection, schedule: Q01DX Z (oral), vehicle: carboxymethylcellulose (CMC) 103 % of control | dose: 960.0 mg/kg/injection, schedule: Q01DX Z (oral), vehicle: carboxymethylcellulose (CMC) 114 % of control

COC(=O)CSc1nn2nnnc2c2ccccc12
inactive: dose: 50.0 mg/kg/injection, schedule: Q04DX003 (ip), vehicle: saline 95 % of control | [1] 103 % of control | [2] 98 % of control

CCOC(OCC)C(C)(C)OC=O
inactive: dose: 100.0 mg/kg/injection, schedule: Q01DX001 (ip), vehicle: saline 103 % of control | dose: 200.0 mg/kg/injection, schedule: Q01DX001 (ip), vehicle: saline 103 % of control | dose: 400.0 mg/kg/injection, schedule: Q01DX001 (ip), vehicle: saline 103 % of control

CCCCOP(=O)(OCCCC)Oc1cccc([N+](=O)[O-])c1
inactive: dose: 6.25 mg/kg/injection, schedule: Q01DX009 (ip), vehicle: carboxymethylcellulose (CMC) 117 % of control and 89 % of control | dose: 6.25 mg/kg/injection, schedule: Q04DX002 (ip), vehicle: carboxymethylcellulose (CMC) 93 % of control and 101 % of control | dose: 12.5 mg/kg/injection, schedule: Q01DX009 (ip), vehicle: carboxymethylcellulose (CMC) 110 % of control and 89 % of control | dose: 12.5 mg/kg/injection, schedule: Q04DX002 (ip), vehicle: carboxymethylcellulose (CMC) 93 % of control and 101 % of control | dose: 25.0 mg/kg/injection, schedule: Q01DX001 (ip), vehicle: carboxymethylcellulose (CMC) 104 % of control | dose: 25.0 mg/kg/injection, schedule: Q01DX009 (ip), vehicle: carboxymethylcellulose (CMC) 98 % of control and 92 % of control | [3] 100 % of control

COc1ccc(C(CCl)(CCl)c2ccc(OC)c(C)c2)cc1C
inactive: [4] 90 % of control | [5] 100 % of control | [6] 96 % of control | [7] 94 % of control | dose: 400.0 mg/kg/injection, schedule: Q01DX009 (ip), vehicle: saline with Tween-80 86 % of control | [8] 92 % of control

CCCCC(C)(O)CCC (centres undefined)
inactive: [3] 104 % of control | [9] 101 % of control | [10] 98 % of control | [11] 89 % of control

c1ccc(C2=NNC(c3ccccn3)=NN2)nc1
inactive: [5] 96 % of control | [7] 96 % of control | [8] 102 % of control

CCOCc1nc(N)nc(N)c1-c1cccc(Cl)c1
inactive: [4] 104 % of control | [6] 117 % of control

Cc1cc(SCC(=O)O)sc1C
inactive: [12] 92 % of control | [13] 107 % of control | [14] 107 % of control

CCS(=O)(=O)Cc1ccccc1
inactive: [15] 100 % of control | [16] 106 % of control | [17] 102 % of control

CC1=C/C(=N/N(C)C)CC(C)C1 (centres undefined)
inactive: dose: 12.5 mg/kg/injection, schedule: Q01DX009 (ip), vehicle: saline 96 % of control | dose: 25.0 mg/kg/injection, schedule: Q01DX009 (ip), vehicle: saline 102 % of control | dose: 50.0 mg/kg/injection, schedule: Q01DX009 (ip), vehicle: saline 95 % of control | [1] 100 % of control | [2] 109 % of control | dose: 400.0 mg/kg/injection, schedule: Q04DX003 (ip), vehicle: saline 112 % of control

CC(=O)C1CCC2C3CC=C4CC(O)C=CC4(C)C3CCC12C (centres undefined)
inactive: [18] 92 % of control | [19] 96 % of control | [20] 92 % of control

CCCCNC(c1ccccc1)C(Cl)c1ccccc1 (centres undefined)
inactive: [18] 97 % of control | [19] 97 % of control

O=C(Nc1cccc(C(F)(F)F)c1)Oc1ccc(F)cc1
inactive: dose: 100.0 mg/kg/injection, schedule: Q01DX001 (ip), vehicle: Klucel (hydroxypropylcellulose) (HPC) 104 % of control | [15] 107 % of control and 116 % of control | [12] 92 % of control | [18] 94 % of control | dose: 200.0 mg/kg/injection, schedule: Q01DX001 (ip), vehicle: Klucel (hydroxypropylcellulose) (HPC) 109 % of control | [16] 104 % of control and 115 % of control | [13] 93 % of control and 92 % of control | [19] 99 % of control | dose: 400.0 mg/kg/injection, schedule: Q01DX001 (ip), vehicle: Klucel (hydroxypropylcellulose) (HPC) 98 % of control | [17] 104 % of control and 113 % of control | [14] 102 % of control and 108 % of control | [20] 105 % of control

COCCOCCOC(C)Oc1ccc(C(=O)OC)cc1 (centres undefined)
inactive: dose: 100.0 mg/kg/injection, schedule: Q04DX002 (ip), vehicle: saline 105 % of control | dose: 200.0 mg/kg/injection, schedule: Q04DX002 (ip), vehicle: saline 92 % of control | dose: 400.0 mg/kg/injection, schedule: Q04DX002 (ip), vehicle: saline 108 % of control

CCCCOC(=O)C1C=C(N)CCC1 (centres undefined)
inactive: [9] 92 % of control | [10] 89 % of control | [11] 94 % of control

CC(=O)c1cccc(NS(=O)(=O)c2ccc(Cl)cc2)c1
inactive: [12] 94 % of control | [13] 100 % of control | [14] 91 % of control

Cc1ccc(N2C(=O)c3cc4ccccc4c(-c4ccccn4)c3C2=O)cc1
inactive: dose: 12.5 mg/kg/injection, schedule: Q04DX003 (ip), vehicle: Klucel (hydroxypropylcellulose) (HPC) 103 % of control | dose: 25.0 mg/kg/injection, schedule: Q04DX003 (ip), vehicle: Klucel (hydroxypropylcellulose) (HPC) 103 % of control | dose: 50.0 mg/kg/injection, schedule: Q04DX003 (ip), vehicle: Klucel (hydroxypropylcellulose) (HPC) 103 % of control | [18] 94 % of control
